Target: T1, human recombinant CYP2A6 (Homo sapiens, UniProt P11509)
T1 construct: purchased
T1 sequence (P11509 1-494): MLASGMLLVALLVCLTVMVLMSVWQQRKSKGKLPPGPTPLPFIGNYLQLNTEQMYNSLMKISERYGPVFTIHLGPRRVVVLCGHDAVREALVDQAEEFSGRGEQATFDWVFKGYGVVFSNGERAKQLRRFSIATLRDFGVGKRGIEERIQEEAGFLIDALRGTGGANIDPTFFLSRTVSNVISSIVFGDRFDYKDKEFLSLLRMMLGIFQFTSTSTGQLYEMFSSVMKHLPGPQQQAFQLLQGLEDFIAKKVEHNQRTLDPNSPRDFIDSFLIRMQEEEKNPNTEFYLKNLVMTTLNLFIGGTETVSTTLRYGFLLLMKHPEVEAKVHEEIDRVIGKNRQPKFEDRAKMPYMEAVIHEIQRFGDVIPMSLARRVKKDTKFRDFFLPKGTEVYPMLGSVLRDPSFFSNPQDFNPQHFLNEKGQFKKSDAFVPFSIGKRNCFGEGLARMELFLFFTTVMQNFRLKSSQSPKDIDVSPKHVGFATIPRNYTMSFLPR
Experiment: Inhibition of nicotine metabolism in CYP2A6 Supersomes
Assay type: biochemical
Conditions: 0, 1 and 100 μM; nicotine 100 μM, 15 minutes at 37° C.
Method: Samples containing 0, 5, 50, or 500 μM of GSE or Capsule were prepared as described in Example 4. Each sample was incubated with CYP2A6 Supersomes (human recombinant CYP2A6 in an artificial system comprising requisite factors for sample stability and function), with 20 pmol/ml nicotine at 100 μM, for 15 minutes at 37° C.
Sample containing 0, 1 and 100 μM of cytisine, a nicotine agonist, were prepared by extraction in ddH2O pH 4.1, for 2 hours at room temperature with continuous vortexing. The extraction was done at a concentration of 47 mg/ml. The samples were incubated with CYP2A6 Supersomes with 20 pmmol/ml of nicotine at 100 μM for 15 minutes at 37° C.

O=c1cccc2n1C[C@@H]1CNC[C@H]2C1 [cytisine]
inhibitory effect in CYP2A6 Supersomes (FIG. 7): does not have an inhibitory effect

— patent US20090220626A1 (priority 2005, published 2009)
